The Ki is the dissociation constant of the complex between target and ligand, obtained from inhibition or displacement. Lower therefore signals tighter binding.

Experiment [1] concerns the target Histamine H3 receptor (Homo sapiens, UniProt Q9Y5N1). In words: Binding affinity for human histamine H3 receptor on human colon cells. In kind it is cell-based.
The target in experiment [2] is Histamine H3 receptor (Rattus norvegicus, UniProt Q9QYN8). Briefly: Binding affinity for rat histamine H3 receptor on rat cortical cells.
Chain of Histamine H3 receptor (Rattus norvegicus, UniProt Q9QYN8) (Q9QYN8 whole entry): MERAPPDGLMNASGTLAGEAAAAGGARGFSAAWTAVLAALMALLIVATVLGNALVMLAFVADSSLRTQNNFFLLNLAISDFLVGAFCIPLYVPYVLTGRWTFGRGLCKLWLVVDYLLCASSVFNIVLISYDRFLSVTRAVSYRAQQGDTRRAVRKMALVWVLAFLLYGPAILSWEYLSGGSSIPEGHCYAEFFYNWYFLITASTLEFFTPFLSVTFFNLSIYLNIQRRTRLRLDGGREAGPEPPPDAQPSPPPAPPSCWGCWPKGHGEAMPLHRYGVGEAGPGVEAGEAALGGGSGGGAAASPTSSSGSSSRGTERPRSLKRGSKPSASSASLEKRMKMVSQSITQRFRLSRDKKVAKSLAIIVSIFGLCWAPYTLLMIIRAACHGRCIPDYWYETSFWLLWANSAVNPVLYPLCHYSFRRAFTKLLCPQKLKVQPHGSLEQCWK

Chain of Histamine H3 receptor (Homo sapiens, UniProt Q9Y5N1) (Q9Y5N1 whole entry): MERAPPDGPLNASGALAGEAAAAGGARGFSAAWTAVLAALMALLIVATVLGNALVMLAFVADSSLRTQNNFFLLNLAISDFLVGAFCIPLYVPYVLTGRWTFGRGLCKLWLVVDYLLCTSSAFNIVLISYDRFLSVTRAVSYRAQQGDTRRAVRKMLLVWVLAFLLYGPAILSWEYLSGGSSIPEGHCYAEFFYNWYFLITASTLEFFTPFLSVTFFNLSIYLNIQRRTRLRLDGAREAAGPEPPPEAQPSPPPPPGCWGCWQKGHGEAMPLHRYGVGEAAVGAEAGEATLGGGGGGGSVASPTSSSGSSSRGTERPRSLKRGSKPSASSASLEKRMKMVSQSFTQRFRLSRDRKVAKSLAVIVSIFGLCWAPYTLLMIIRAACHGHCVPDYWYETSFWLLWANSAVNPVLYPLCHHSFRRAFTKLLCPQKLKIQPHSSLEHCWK

As for `CC(C)c1nc(-c2ccc(OCCCN3CCCN(C(=O)[C@@H](C)NC(=O)c4ccco4)CC3)cc2F)no1`, the Ki stood at 46 nM on Histamine H3 receptor [1] and 2.1 nM at Histamine H3 receptor [2].

For `C[C@@H](NC(=O)c1ccno1)C(=O)N1CCN(CCCOc2ccc(-c3noc(-c4ccccc4)n3)c(F)c2)CC1`, on Histamine H3 receptor [1], affinity was put at a Ki of 86 nM.

`C[C@@H](NC(=O)c1ccccc1)C(=O)N1CCN(CCCOc2ccc(-c3noc(-c4ccccc4)n3)c(F)c2)CC1`: the Ki was determined as 39 nM on Histamine H3 receptor [1] and 4.6 nM on Histamine H3 receptor [2].

For the molecule `COc1ccccc1C(=O)N[C@H](C)C(=O)N1CCN(CCCOc2ccc(-c3noc(CC4CCCC4)n3)c(F)c2)CC1`, the Ki is 54 nM at Histamine H3 receptor [1] and 7 nM at Histamine H3 receptor [2].

For the molecule `C[C@@H](NC(=O)c1ccco1)C(=O)N1CCCN(CCCOc2ccc(-c3noc([C@@H](C)NC(=O)OC(C)(C)C)n3)c(F)c2)CC1`, the values for the Ki at Histamine H3 receptor [1] and on Histamine H3 receptor [2] were 520 nM and 28 nM, respectively.

Turning to `CCC(=O)N[C@H](C)C(=O)N1CCN(CCCOc2ccc(-c3noc(CC4CCCC4)n3)c(F)c2)CC1`, the figures for the Ki on Histamine H3 receptor [1] and on Histamine H3 receptor [2] were 170 nM and 7.2 nM, respectively.

As to `C[C@@H](NC(=O)C1CCCC1)C(=O)N1CCN(CCCOc2ccc(-c3noc(-c4ccccc4)n3)c(F)c2)CC1`, the Ki at Histamine H3 receptor [1] came out at 70 nM; on Histamine H3 receptor [2] it was 7 nM.

With `Cc1cccc(C(=O)N[C@H](C)C(=O)N2CCN(CCCOc3ccc(-c4noc(CC5CCCC5)n4)c(F)c3)CC2)c1`, the Ki at Histamine H3 receptor [1] was determined as 31 nM; at Histamine H3 receptor [2], 4.7 nM.

As for `C[C@@H](NC(=O)c1ccc(C#N)cc1)C(=O)N1CCCN(CCCOc2ccc(-c3noc(CC4CCCC4)n3)c(F)c2)CC1`, the Ki on Histamine H3 receptor [1] stood at 12 nM.

In the case of `C[C@@H](NC(=O)[C@@H]1CCCO1)C(=O)N1CCN(CCCOc2ccc(-c3noc(-c4ccccc4)n3)c(F)c2)CC1`, the Ki at Histamine H3 receptor [1] came out at 80 nM.

As for `C[C@@H](NC(=O)c1ccco1)C(=O)N1CCCN(CCCOc2ccc(-c3noc(C4CC4)n3)c(F)c2)CC1`, the Ki on Histamine H3 receptor [1] was 42 nM; on Histamine H3 receptor [2], 1.5 nM.

Regarding `C[C@@H](NC(=O)c1ccco1)C(=O)N1CCCN(CCCOc2ccc(-c3noc(C4CCCC4)n3)c(F)c2)CC1`, the Ki at Histamine H3 receptor [1] was 15 nM; at Histamine H3 receptor [2], 0.86 nM.

`C[C@@H](NC(=O)c1cccnc1)C(=O)N1CCN(CCCOc2ccc(-c3noc(-c4ccccc4)n3)c(F)c2)CC1`: the Ki at Histamine H3 receptor [1] is 27 nM.

Regarding `C[C@@H](NC(=O)c1ccco1)C(=O)N1CCCN(CCCOc2ccc(-c3noc(C4CCCCC4)n3)c(F)c2)CC1`, the Ki came out at 19 nM on Histamine H3 receptor [1] and 2.4 nM on Histamine H3 receptor [2].

Regarding `CCc1nc(-c2ccc(OCCCN3CCCN(C(=O)[C@@H](C)NC(=O)c4ccco4)CC3)cc2F)no1`, the Ki on Histamine H3 receptor [1] is 120 nM.

`C[C@@H](NC(=O)CCN1CCOCC1)C(=O)N1CCN(CCCOc2ccc(-c3noc(-c4ccccc4)n3)c(F)c2)CC1`: at Histamine H3 receptor [1], the Ki came to 88 nM.

Turning to `CC(C)C(=O)N[C@H](C)C(=O)N1CCN(CCCOc2ccc(-c3noc(-c4ccccc4)n3)c(F)c2)CC1`, the values for the Ki at Histamine H3 receptor [1] and at Histamine H3 receptor [2] were 110 nM and 14 nM, respectively.

On Histamine H3 receptor [1], `CC(C)CC(=O)N[C@H](C)C(=O)N1CCN(CCCOc2ccc(-c3noc(-c4ccccc4)n3)c(F)c2)CC1` yielded a Ki of 56 nM.

As for `CCCCC(=O)N[C@H](C)C(=O)N1CCN(CCCOc2ccc(-c3noc(CC4CCCC4)n3)c(F)c2)CC1`, the results for the Ki on Histamine H3 receptor [1] and on Histamine H3 receptor [2] were 79 nM and 2.6 nM, respectively.

For `C[C@@H](NC(=O)c1ccco1)C(=O)N1CCCN(CCCOc2ccc(-c3noc(-c4ccsc4)n3)c(F)c2)CC1`, the Ki at Histamine H3 receptor [1] turned out to be 49 nM; at Histamine H3 receptor [2], 2.6 nM.

Consider `CCCCC(=O)N[C@H](C)C(=O)N1CCCN(CCCOc2ccc(-c3noc(CC4CCCC4)n3)c(F)c2)CC1`, for which the Ki was 18 nM on Histamine H3 receptor [1] and 1.4 nM at Histamine H3 receptor [2].

The molecule `C[C@@H](N)C(=O)N1CCN(CCCOc2ccc(C(=O)C3CC3)cc2)CC1` displayed a Ki at Histamine H3 receptor [1] of 760 nM.

For the molecule `C[C@@H](NC(=O)c1ccc(Cl)cc1)C(=O)N1CCCN(CCCOc2ccc(-c3noc(CC4CCCC4)n3)c(F)c2)CC1`, the Ki on Histamine H3 receptor [1] is 31 nM; on Histamine H3 receptor [2], 5.2 nM.

With `C[C@@H](NC(=O)C1CCCCC1)C(=O)N1CCN(CCCOc2ccc(-c3noc(-c4ccccc4)n3)c(F)c2)CC1`, the Ki was 49 nM on Histamine H3 receptor [1] and 6.9 nM on Histamine H3 receptor [2].

`C[C@@H](NC(=O)c1ccc(Cl)c(Cl)c1)C(=O)N1CCN(CCCOc2ccc(-c3noc(CC4CCCC4)n3)c(F)c2)CC1`: the Ki at Histamine H3 receptor [1] came to 15 nM; at Histamine H3 receptor [2] it was 1.8 nM.

For the molecule `CC(=O)N[C@H](C)C(=O)N1CCCN(CCCOc2ccc(-c3noc(CC4CCCC4)n3)c(F)c2)CC1`, the Ki is 40 nM on Histamine H3 receptor [1] and 2 nM on Histamine H3 receptor [2].

Regarding `C[C@@H](NC(=O)c1ccsc1)C(=O)N1CCN(CCCOc2ccc(-c3noc(-c4ccccc4)n3)c(F)c2)CC1`, the inhibitory constant (Ki) was 28 nM at Histamine H3 receptor [1] and 4.2 nM at Histamine H3 receptor [2].

As to `C[C@@H](NC(=O)c1ccc(O)cc1)C(=O)N1CCN(CCCOc2ccc(-c3noc(CC4CCCC4)n3)c(F)c2)CC1`, the Ki came to 16 nM at Histamine H3 receptor [1] and 1.3 nM on Histamine H3 receptor [2].

Regarding `C[C@@H](NC(=O)c1cccc(C#N)c1)C(=O)N1CCN(CCCOc2ccc(-c3noc(CC4CCCC4)n3)c(F)c2)CC1`, the Ki on Histamine H3 receptor [1] stood at 35 nM; on Histamine H3 receptor [2], 1.5 nM.

`C[C@@H](NC(=O)c1ccc(C#N)cc1)C(=O)N1CCN(CCCOc2ccc(-c3noc(-c4ccccc4)n3)c(F)c2)CC1`: the Ki on Histamine H3 receptor [1] was determined as 20 nM; at Histamine H3 receptor [2] it was 2.6 nM.

`COc1ccc(C(=O)N[C@H](C)C(=O)N2CCCN(CCCOc3ccc(-c4noc(CC5CCCC5)n4)c(F)c3)CC2)cc1`: the Ki was found to be 9.8 nM on Histamine H3 receptor [1] and 1.1 nM on Histamine H3 receptor [2].

In turn, `C[C@@H](NC(=O)c1ccccc1Cl)C(=O)N1CCN(CCCOc2ccc(-c3noc(CC4CCCC4)n3)c(F)c2)CC1` yielded a Ki on Histamine H3 receptor [1] of 8.6 nM.

With `C[C@@H](NC(=O)c1cccc(C(F)(F)F)c1)C(=O)N1CCN(CCCOc2ccc(-c3noc(CC4CCCC4)n3)c(F)c2)CC1`, the Ki is 87 nM at Histamine H3 receptor [1] and 10 nM at Histamine H3 receptor [2].

With `COc1ccc(C(=O)N[C@H](C)C(=O)N2CCN(CCCOc3ccc(-c4noc(CC5CCCC5)n4)c(F)c3)CC2)cc1OC`, the Ki came out at 24 nM on Histamine H3 receptor [1] and 2.5 nM on Histamine H3 receptor [2].

On to `CC(C)C(=O)N[C@H](C)C(=O)N1CCCN(CCCOc2ccc(-c3noc(CC4CCCC4)n3)c(F)c2)CC1`, for which the Ki on Histamine H3 receptor [1] was determined as 14 nM; at Histamine H3 receptor [2] it was 1.3 nM.

As for `C[C@@H](NC(=O)c1ccc(F)cc1)C(=O)N1CCCN(CCCOc2ccc(-c3noc(CC4CCCC4)n3)c(F)c2)CC1`, the Ki amounted to 14 nM at Histamine H3 receptor [1] and 1.2 nM at Histamine H3 receptor [2].

As for `C[C@@H](NC(=O)c1ccco1)C(=O)N1CCCN(CCCOc2ccc(-c3noc(-c4cccnc4)n3)c(F)c2)CC1`, the Ki is 190 nM on Histamine H3 receptor [1] and 6.9 nM at Histamine H3 receptor [2].

As to `COc1ccc(C(=O)N[C@H](C)C(=O)N2CCN(CCCOc3ccc(-c4noc(CC5CCCC5)n4)c(F)c3)CC2)cc1`, the affinity at Histamine H3 receptor [1], expressed as Ki, was 11 nM.

Turning to `C[C@@H](NC(=O)c1cccs1)C(=O)N1CCN(CCCOc2ccc(-c3noc(-c4ccccc4)n3)c(F)c2)CC1`, the Ki on Histamine H3 receptor [1] amounted to 40 nM.

With `C[C@@H](NC(=O)c1ccco1)C(=O)N1CCCN(CCCOc2ccc(-c3noc(CCc4ccccc4)n3)c(F)c2)CC1`, the results for the Ki on Histamine H3 receptor [1] and on Histamine H3 receptor [2] were 7.5 nM and 0.94 nM, respectively.

Take `CCCCCC(=O)c1ccc(OCCCN2CCN(C(=O)OCC)CC2)cc1`: affinity at Histamine H3 receptor [2] was put at a Ki of 1 nM.

On Histamine H3 receptor [1], `C[C@@H](NC(=O)c1ccco1)C(=O)N1CCN(CCCOc2ccc(-c3noc(-c4ccccc4)n3)c(F)c2)CC1` (stereo in doubt; 13p) registered a Ki of 43 nM.
